Data as given in patent US7049116B2, “Engineered protein kinases which can utilize modified nucleotide triphosphate substrates” (Princeton University, priority 1997, dated 2006).
Entries after “also recorded” stand apart in the source; their conditions may differ.

Columns and labels:
[1] = tested on: GST-XD4 (V323A, I338A); conditions: 100 μM analog, 10 μM [γ-32P]ATP
[2] = molecular target: T1, I338G v-Src (Rous sarcoma virus subgroup A, UniProt P00524, DEL77-225/I338G); assay: biochemical
T1 construct: made in house; host or cells: E. coli DH5α (pGEX-KT)

[3] = molecular target: T2, WT Fyn (Homo sapiens, UniProt P06241); assay: In vitro kinase inhibition assay; assay type: biochemical; set-up: inhibition of Fyn: dose or concentration left out as unconfirmed
T2 construct: GST; made in house; host or cells: E. coli DH5α (pGEX-KT)
T2 sequence (P06241 1-534 isoform P06241-2): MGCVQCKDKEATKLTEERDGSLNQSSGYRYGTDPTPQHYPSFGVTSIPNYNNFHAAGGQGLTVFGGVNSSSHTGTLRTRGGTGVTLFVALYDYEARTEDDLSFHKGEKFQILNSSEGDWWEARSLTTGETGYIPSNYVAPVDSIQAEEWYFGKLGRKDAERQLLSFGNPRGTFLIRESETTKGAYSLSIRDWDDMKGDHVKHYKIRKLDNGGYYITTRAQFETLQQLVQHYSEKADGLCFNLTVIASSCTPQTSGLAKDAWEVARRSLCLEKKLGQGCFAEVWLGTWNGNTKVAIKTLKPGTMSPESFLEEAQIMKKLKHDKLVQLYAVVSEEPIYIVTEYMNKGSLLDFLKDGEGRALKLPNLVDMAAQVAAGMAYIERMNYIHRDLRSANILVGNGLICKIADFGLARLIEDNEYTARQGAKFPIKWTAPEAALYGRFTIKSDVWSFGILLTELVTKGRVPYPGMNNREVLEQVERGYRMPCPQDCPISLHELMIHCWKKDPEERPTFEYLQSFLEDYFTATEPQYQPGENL

[4] = molecular target: T2, WT Fyn; conditions: published parent molecule; cited from earlier work
[5] = tested on: tyrosine kinases of murine lymphocyte cell lysate (CF); assay: Screening of nucleotide analogs in murine lymphocyte lysate, anti-phosphotyrosine immunoblot; assay type: biochemical; conditions: 100 μM nucleotide triphosphate, 37° C., five minutes
Experimental: To identify compounds that would not be accepted as substrates by any existing cellular kinases (53), Applicant screened a panel of synthetic A^*TP analogs in a murine lymphocyte lysate (CF) rich in protein tyrosine kinases (13).
The assays were performed using spleenocytes (8-30 week old male and female C57/B6 mice from the Princeton University Animal Facility) which were isolated and washed in RPMI-1640 medium containing 5% Bovine Calf Serum (BCS), 1% Hepes and DNaseI (1 μg/ml). Red cells were lysed at 4° C. by treatment with 17 mM Tris ammonium chloride (pH 7.2). The cells were hypotonically lysed on ice for ten minutes in 1 mM Hepes (pH 7.4), 5 mM MgCl2, leupeptin (10 μg/ml), aprotinin (10 μg /ml) and 100 μM PMSF according to the method of Fukazawa et al. (51). After vortexing and centrifugation at 500 × g, the supernatant was collected. Cells were stored at 4° C. for twenty minutes to attenuate the basal protein phosphorylation level, after which the buffer was adjusted to 20 mM Hepes (pH 7.4), 10 mM MgCl2 and 1 mM NaF. Sodium vanadate (100 μM) was then added to inhibit the activity of phosphotyrosine phosphatases.
Each nucleotide triphosphate was added to a final concentration of 100 μM to 5×10^6 cell equivalents and incubated at 37° C. for five minutes after which 4 × Laemmli gel loading buffer was added to the cell lysate to quench the reaction. Proteins were separated by 12.5% SDS-PAGE and transferred to Protran BA85 (Schleicher-Schuell). The blot was probed with the anti-phosphotyrosine monoclonal antibody 4G10 (Upstate Biotechnology) and the bound antibody was detected via enhanced chemiluminescence (Pierce) following treatment with HRP-coupled goat anti-mouse antibody (VWR catalog #710133) according to the manufacturer's instructions.
The cell lysate used includes the tyrosine kinases Src, Fyn, Lck, Lyn, Yes, Fgr, Hck, Zap, Syk, Btk, Blk, and other tyrosine kinases present in B and T lymphocytes, macrophages, and follicular dendritic cells (13). Molecular size standards (in kilodaltons) arc indicated.

[6] = molecular target: T3, GST-XD4 (Rous sarcoma virus subgroup A, UniProt P00524, DEL77-225); assay type: biochemical
T3 construct: contains an intact SH1 catalytic domain but lacks the non-catalytic regulatory SH3 and SH2 domains; made in house; host or cells: E. coli DH5α (pGEX-KT)
Experimental: (§1) Kinetic constants were determined by analysis of Lineweaver-Burk plots of the rate data (64). […] ATP (1000 cpm/pmol) or [γ-^32P] N^6(cyclopentyl)ATP (5000 cpm/pmol) as indicated.

[7] = molecular target: T4, GST-XD4 (V323A, I338A) (Rous sarcoma virus subgroup A, UniProt P00524, DEL77-225/I338A/V323A); assay type: biochemical; conditions: GST-XD4 (V323A, I338A), 1 mM RR-Src, 37° C., pH 8.0
T4 construct: contains an intact SH1 catalytic domain but lacks the non-catalytic regulatory SH3 and SH2 domains; made in house; host or cells: E. coli DH5α (pGEX-KT)
Experimental: as §1

[8] = tested on: GST-XD4 (V323A, I338A); assay type: biochemical, Rous sarcoma virus
Experimental: as §1

[9] = molecular target: T5, GST-XD4 (I338A) (Rous sarcoma virus subgroup A, UniProt P00524, DEL77-225/I338A); assay: Autophosphorylation of single mutation v-Src mutants; assay type: biochemical; conditions: mutant with alanine at position 338
T5 construct: made in house
Source text: (§2) However, these had only single mutations, at position 338. These were again expressed as GST-XD4 fusion proteins.
(§3) The panels on the right side of FIG. 7 tell an even more interesting story.

[10] = molecular target: T3, GST-XD4; assay: Autophosphorylation autoradiogram; assay type: biochemical; conditions: GST-XD4, FIG. 5C lane 3
Source text: (§4) It is even more significant that the new substrate, [γ-^32P]

[11] = molecular target: T4, GST-XD4 (V323A, I338A); assay: Autophosphorylation autoradiogram; assay type: biochemical; conditions: FIG. 5C lane 4
Source text: as §4

[12] = tested on: wild-type cellular kinases of murine lymphocyte lysates; assay: In vitro kinase reactions with radiolabeled nucleotide in murine lymphocyte lysates; assay type: biochemical; conditions: 100 μM radiolabeled nucleotide, 37° C., ten minutes
[13] = molecular target: T6, GST-XD4 (I338G) (Rous sarcoma virus subgroup A, UniProt P00524, DEL77-225/I338G); assay: Autophosphorylation of single mutation v-Src mutants; assay type: biochemical; conditions: mutant with glycine at position 338
T6 construct: made in house; host or cells: E. coli DH5α (pGEX-KT)
Source text: as §2, §3

[14] = molecular target: T7, GST-XD4 (I338S) (Rous sarcoma virus subgroup A, UniProt P00524, DEL77-225/I338S); assay: as above; assay type: biochemical; conditions: mutant with serine at position 338
T7 construct: made in house
Source text: as §2, §3

[15] = tested on: PDGFR; conditions: cited from earlier work
[16] = tested on: B cell receptor (BCR) mediated phosphorylation cascade in murine spleen cells; assay: Murine B cell assay (B cell receptor mediated tyrosine phosphorylation); assay type: cell-based; conditions: 100 μM in […] DMSO, anti-IgM stimulated murine spleen cells
Experimental: Splenic lymphocytes were isolated from 6-20 week old Balb/c or C57/B6 mice. The cells were washed out of the spleen into RPMI media containing 1 mg/ml DNase I and the red blood cells were lysed in 17 mM tris-ammonium chloride (pH 7.2). Approximately 4×10^6 cells were incubated at 37° C. for thirty minutes with 100 μM of (3g) or (2) in 1.1% DMSO. B cell stimulation was initiated by the addition of […] of goat anti-mouse IgM (Jackson ImmunoResearch) and subsequent incubation for five minutes at 37° C. The cells were isolated by centrifugation (13,000 rpm, two minutes) and lysed (lysis buffer: 1% Triton x-100, 50 mM Tris (pH 7.4), 2 mM EDTA, 150 mM NaCl, 100 mM PMSF, 2 mM sodium orthovanadate, 10 mg/ml leupeptin, 10 mg/ml apoprotin). The cellular debris was then pelleted at 13,000 rpm for fifteen minutes. Cellular proteins were separated by 10% polyacrylamide gel electrophoresis and transferred to a nitrocellulose membrane by Western blotting. Phosphotyrosine containing proteins were visualized by immunoblotting with anti-phosphotyrosine antibody (Upstate Biotechnology).

## O=P(O)(O)OP(=O)(O)OP(=O)(O)OC[C@H]1O[C@@H](n2cnc3c(NOC4CCCC4)ncnc32)[C@H](O)[C@@H]1O [Analog 9, N^6(cyclopentyloxy)ATP]
[1]
  relative inhibition of GST-XD4 (V323A, I338A) catalyzed RR-Src phosphorylation: almost as well as the wild-type kinase

## CC(C)(C)n1nc(-c2ccccc2)c2c(NCc3ccco3)ncnc21 [Analog 4d, 4-2′-furylmethylamino-1-tert-butyl-3-phenylpyrazolol[3,4-d]pyrimidine]
[2]
  inhibition of I338G v-Src (in words): only poor to moderate inhibition
[3]
  inhibition of WT Fyn (in words): sufficiently orthogonal

## CC(C)(C)n1nc(-c2ccccc2)c2c(NCc3ccccc3)ncnc21 [Analog 4e, 4-benzylamino-1-tert-buty-3-phenylpyrazolo[3,4-d]pyrimidine]
[2]
  inhibition of I338G v-Src (in words): only poor to moderate inhibition
[3]
  inhibition of WT Fyn (in words): sufficiently orthogonal

## Cc1ccc(-c2nn(C(C)(C)C)c3ncnc(N)c23)cc1 [PPI, 4-amino-1-tert-butyl-3-(p-methylphenyl)pyrazolo(3,4-d)pyrimidine]
[4]
  inhibition of Fyn (in words): highly potent (low nM)

## CC(C)(C)n1nc(-c2ccccc2)c2c(NCC3CCCC3)ncnc21 [Analog 4b, 4-cyclopentylmethylamino-1-tert-butyl-3-phenylpyrazolo[3,4-d]pyrimidine]
[2]
  inhibition of I338G v-Src (in words): only poor to moderate inhibition
[3]
  inhibition of WT Fyn (in words): sufficiently orthogonal

## CC(C)ONc1ncnc2c1ncn2[C@@H]1O[C@H](COP(=O)(O)OP(=O)(O)OP(=O)(O)O)[C@@H](O)[C@H]1O [Analog 4, N^6(i-propoxy)ATP]
[5]
  level of protein tyrosine phosphorylation (ability to serve as cellular tyrosine kinase substrate): little or no protein phosphorylation

## O=P(O)(O)OP(=O)(O)OP(=O)(O)OC[C@H]1O[C@@H](n2cnc3c(NCc4ccccc4)ncnc32)[C@H](O)[C@@H]1O [Analog 5, N^6(benzyl)ATP]
[5]
  level of protein tyrosine phosphorylation (ability to serve as cellular tyrosine kinase substrate): little or no protein phosphorylation
[1]
  relative inhibition of GST-XD4 (V323A, I338A) catalyzed RR-Src phosphorylation: almost as well as the wild-type kinase

## O=P(O)(O)OP(=O)(O)OP(=O)(O)OC[C@H]1O[C@@H](n2cnc3c(NC4CCCCC4)ncnc32)[C@H](O)[C@@H]1O [Analog 11, N^6(cyclohexyl)ATP]
[1]
  relative inhibition of GST-XD4 (V323A, I338A) catalyzed RR-Src phosphorylation: almost as well as the wild-type kinase

## Nc1ncnc2c1ncn2[C@@H]1O[C@H](COP(=O)(O)OP(=O)(O)OP(=O)(O)O)[C@@H](O)[C@H]1O [ATP, adenosine triphosphate, reference compound]
[6]; GST-XD4, 1 mM RR-Src, 37° C., pH 8.0
  kcat: 0.033 ± 0.0083 s⁻¹
[7]
  kcat: 0.013 ± 0.0033 s⁻¹
[8]; higher in mutant
  KM of the mutant for ATP relative to KM of GST-XD4 for ATP: more than 10 fold
[9]
  utilization as phosphate donor substrate (autophosphorylation): more readily than the mutant with serine; also recorded: better able to use ATP as a substrate than is the mutant with glycine

## O=P(O)(O)OP(=O)(O)OP(=O)(O)OCC1OC(n2cnc3c(NC4CCCC4)ncnc32)C(O)C1O (stereo not shown) [Analog 8, N^6(cyclopentyl)ATP]
[5]
  level of protein tyrosine phosphorylation (ability to serve as cellular tyrosine kinase substrate): slightly lower level of phosphorylation with wild-type kinases
[6]; wild-type GST-XD4
  phosphorylation of RR-Src peptide with the nucleotide as phosphate donor: did not substantially phosphorylate
[7]
  kcat: 0.00083 ± 0.00033 s⁻¹
[8]; lower than wild-type with ATP
  kcat/KM of mutant with orthogonal substrate relative to kcat/KM of wild-type kinase with ATP: 50 fold
[10]
  use as phosphodonor for autophosphorylation: apparent complete inability
[11]
  use as phosphodonor for autophosphorylation: efficiently autophosphorylated
[12]
  radiolabeled phosphoproteins in cell lysate: no radiolabeled phosphoproteins
[13]
  utilization as phosphate donor substrate (autophosphorylation): better able to use N^6(cyclopentyl)ATP as substrate than is the mutant with alanine
[14]
  utilization as phosphate donor substrate (autophosphorylation): not able to utilize N6(cyclopentyl)ATP nearly as well as is the mutant with alanine
[1]
  relative inhibition of GST-XD4 (V323A, I338A) catalyzed RR-Src phosphorylation: almost as well as the wild-type kinase

## CC(C)(C)n1nc(-c2ccccc2)c2c(N)ncnc21 [(2), 4-amino-1-tert-butyl-3-phenylpyrazolo(3,4-d)pyrimidine, reference compound]
[3]
  inhibition of WT Fyn (in words): highly potent (low nM)
[16]
  phosphotyrosine pattern of B cell stimulation: significant reduction in tyrosine phosphorylation

## CC(=O)Nc1ncnc2c1ncn2[C@@H]1O[C@H](COP(=O)(O)OP(=O)(O)OP(=O)(O)O)[C@@H](O)[C@H]1O [Analog 3, N^6(acetyl)ATP]
[5]
  level of protein tyrosine phosphorylation (ability to serve as cellular tyrosine kinase substrate): some ability to serve as cellular tyrosine kinase substrates

## OCC1OC(n2cnc3c(NOC4CCCC4)ncnc32)C(O)C1O (stereo not shown) [N^6 cyclopentyloxyadenosine]
[3]; concentrations up
  inhibition of Fyn: no detectable in vitro inhibition

## O=P(O)(O)OP(=O)(O)OP(=O)(O)OC[C@H]1O[C@@H](n2cnc3c(NOCc4ccccc4)ncnc32)[C@H](O)[C@@H]1O [Analog 6, N^6(benzyloxy)ATP]
[5]
  level of protein tyrosine phosphorylation (ability to serve as cellular tyrosine kinase substrate): little or no protein phosphorylation

## CONc1ncnc2c1ncn2[C@@H]1O[C@H](COP(=O)(O)OP(=O)(O)OP(=O)(O)O)[C@@H](O)[C@H]1O [Analog 1, N^6(methoxy)ATP]
[5]
  level of protein tyrosine phosphorylation (ability to serve as cellular tyrosine kinase substrate): some ability to serve as cellular tyrosine kinase substrates

## CCONc1ncnc2c1ncn2[C@@H]1O[C@H](COP(=O)(O)OP(=O)(O)OP(=O)(O)O)[C@@H](O)[C@H]1O [Analog 2, N^6(ethoxy)ATP]
[5]
  level of protein tyrosine phosphorylation (ability to serve as cellular tyrosine kinase substrate): some ability to serve as cellular tyrosine kinase substrates
